Data set [1] can be described thus: Serum ALT and AST, CD1 mice. Particulars: paclitaxel 10 mg/kg, CTR 30 mg/kg, combinations paclitaxel 5 + CTR 15 mg/kg, vehicle 38.76 ± 0.17, in U/L (unit assumed).
From the text: Alanine transaminase (ALT, SUP6001-c) and Aspartate transaminase (AST, SUP6002-c) color endpoint assay kits were purchased from ID Labs (London, Ontario, Canada).
Blood samples were collected via cardiac puncture and processed for ALT and AST measurements. The animals were then immediately euthanized by carbon dioxide.
The next data set concerns centrosomes. The experiment in a line: Distance between two centrosomes by fluorescence microscopy. It counts as cell-based. As to conditions: 3.0 μmol/L CTR-17. The method, then:
and Lee, 2008). The reversibility of drug effects was carried out as follow: He La cells treated
with CTR-17 or CTR-20 for 12 hours were w ashed twice with 1 × PBS and then releas ed into
pre-w armed complet emedium . Subsequentl y, c ell s were h arvested at scheduled time points to
ex amine their DNA profi les /cell c ycle positions by flow c ytometr y.
Immunofluorescencestai ning was car ried out as d escribed previousl y (Santi and Lee,
2011).Photograph y was carri ed out with a Carl Zeiss 510 Meta l aser s cann ing microscop e or an
Axioscope,and images were captur ed with LSM image examiner (Carl Zeiss, North York, ON,
Canada). For immunostaining , a background cont rol (without secondar y antibody) and bleed-
through controls (cells labeled with each fluorophore separatel y) were used to avoid inaccur ate
interpretation of dat a due to artifacts. A minimum of 10 fields per coverslip and 200 cells for
quantitative cell anal ysis were captur ed. Each ex periment was r epeat ed at l east twice. Western
blotting was carried out as described previousl y (Santi and Lee, 2010).
Molecular Operating Environment (MOE) (Chemi cal Computing Group Inc, Montreal, […]
The best docking pose was determined based on t he minimum free energy for binding. […]
hours or 24hours . The m itotic index was determined b y fluorescence micro scop y with counting […]

The subject of data set [2] is MDA-MB-231 triple-negative metastatic breast cancer cells. The data set is described as follows: Antitumor activity in engrafted athymic mice. It counts as in vivo, ATH490 athymic mice. As to conditions: for tumor volume Day 0 / tumor volume Day 6: Tax 10 mg/kg i.v. once/week, CTR 30 mg/kg i.p. every 3-4 days, combinations Tax 5 + CTR 15 mg/kg once/week; for tumor volume Day 6: sham 105.03; for tumor volume Day 14 / tumor volume Day 17 / tumor volume Day 20 / tumor volume Day 24 / tumor volume Day 27 / tumor volume Day 30: same doses; for tumor volume Day 14: sham 136.66; for tumor volume Day 17: sham 162.62; for tumor volume Day 20: sham 192.69; for tumor volume Day 24: sham 268.08; for tumor volume Day 27: sham 426.87; for tumor volume Day 30: sham 557.66. The method, then:
The animals were then immediately euthanized by carbon dioxide. […]
Supplementary Table S2. A typical treatment protocol of engrafted mice with CTR alone or in
combination with paclitaxel.
Treatment Dos a ge Frequ enc y Route Notes
Sham control Highest volume E v e r y 3-4 d a ys Intraperitoneal (I.P.) Vehicle onl y
Taxa 10 mg/kgb Once/week Intravenous ( I.V.)
CTR-17 (30) 30 mg/kg E v e r y 3-4 d a ys I. P .
CTR-20 (30) 30 mg/kg E v e r y 3-4 d a ys I. P .
Supplementary Table S 3: Antitumor activity of CTR -17 and CTR -20, alone or in combination
a Tax: paclitaxel. b mg per kg of bod y wei ght. c unit is mm 3. […]

A further data set has as its system COLO 205. The experiment in a line: NCI-60 SRB screen. It counts as cell-based. Particulars: 1.00E-5 Molar. From the text: Supplementary Table S 3: Antitumor activity of CTR -17 and CTR -20, alone or in combination […]
a Tax: paclitaxel. b mg per kg of bod y wei ght. c unit is mm 3.
Supplementary Figure l egend
10μ M of CTR-20 was used to examine the drug’s efficac y against the NC I-60 cancer cell li nes including: six leukemia cell lines, nine non- small cell lung cancer cell lines, seven color ect al cancer cell lines, six CNS cancer cell lines, nine melanoma cell lines, seven ovari an can cer cell lines, seven ren al can cer cell lines, two prostate cancer cell lines and six breast cancer cell lines. The scr eenin g was car r ied out b y the US National Cancer Institute (NC I) us i n g a sulforhodamine B (SRB) colorimetric assay. […]
out by the NC I using five different doses of CTR -20.

The test system of another data set is MDR1. The data set is described as follows: Rh123 dye efflux assay, KB-C-2 cells. It counts as cell-based. Particulars: MDR1, KB-C-2 cells; 22 µmol/L of drug; DMSO control 58.0%. The method, then: Rhodamine123 (Rh123) drug efflux was carried out using a Multidrug-Resistance Direct Dye Efflux Activity Kit (Millipore, Darmstadt, Germany), with some modifications. […] Reading was carried out with a Beckman Coulter FC500 flow cytometer.

Several values for one entry are separate records, joined by “and”; a condition that tells them apart may be missing. Equal values may be shown once.

On to `COc1ccccc1C(=O)/C=C/c1cc2ccccc2[nH]c1=O` [CTR-17, (E)-3-(3-(2-Methoxyphenyl)-3-oxoprop-1-enyl)quinolin-2(1H)-one], for which, in data set [1], the “levels of ALT and AST” value worked out at 37.02 ± 1.46. In the data set with centrosomes, the distance between two centrosomes is 4.83 ± 0.36 µm; the “distance between two centrosomes shorter than sham control” value is ~ 35% and 35%. Also, in data set [2], the “tumor volume Day 0” value is given as 86.71 mm3, the “tumor volume Day 6” value is recorded as 63.99 mm3, the “tumor volume Day 14” value was 90.07 mm3 and the “tumor volume Day 17” value was found to be 128.36 mm3. Besides, in data set [2], the “tumor volume Day 20” value is 134.76 mm3, the “tumor volume Day 24” value is 160.86 mm3, the “tumor volume Day 27” value was determined as 189.45 mm3 and the “tumor volume Day 30” value was 209.84 mm3.
Regarding `COc1ccc2[nH]c(=O)c(/C=C/C(=O)c3ccccc3OC)cc2c1` [CTR-20, (E)-6-Methoxy-3-(3-(2-methoxyphenyl)-3-oxoprop-1-enyl) quinolin-2(1H)-one], in the data set with COLO 205, the “Growth Percent” value was 20.45%. Also, the “levels of ALT and AST” value in data set [1] is on record as 30.43 ± 0.49. Besides, the Rh123 retention with MDR1 amounted to 57.9%. In data set [2], the “tumor volume Day 0” value is 92.51 mm3, the “tumor volume Day 6” value is listed as 69.89 mm3, the “tumor volume Day 14” value stood at 84.64 mm3 and the “tumor volume Day 17” value came out at 97.11 mm3. For the same compound, in data set [2], the “tumor volume Day 20” value is 97.22 mm3, the “tumor volume Day 24” value is recorded as 106.26 mm3, the “tumor volume Day 27” value came to 124.88 mm3 and the “tumor volume Day 30” value is 140.63 mm3.

The values are drawn from PMC5578999, “Novel quinolone chalcones targeting colchicine-binding pocket kill multidrug-resistant cancer cells by inhibiting tubulin activity and MRP1 function” (Scientific Reports, 2017).
